Data published in US20230149378A1, “Aminothiolester compounds or pharmaceutically acceptable salts thereof, for use for the treatment of cancer” (ADVANCED BIODESIGN, priority 2015, published 2023).
Blank lines part the entries; values can stand above or below the compound they belong to.

Tests used:
[1] = Aruoma et al 1989; cited from earlier work
[2] = Aruoma et al 1989; cited from earlier work; remark: listed apart in the source
HL-60 cells [3] = test: Measurement of GSH level (GSH-Glo); type: cell-based, human; details: HL-60 cells treated with 2.5 mM NAC; FIG. 6(B)
Protocol: (§1) Cells were seeded in 96-well black walled plate (5×10^4 cells/mL) and incubated overnight for attachment. The cells were treated either with vehicle, DMSO, BCNU 100 μM, S-methyl 4-(dimethylamino)-4-methylpent-2-ynethioate 20 μM, for 24 hours. The total glutathione was measured according to the instructions of the kit (GSH-Glo™, Promega) and results were obtained for 25 000 cells.

HL60 cancers cells = test: Measurement of H2O2 production (Total ROS/superoxide detection kit); type: cell-based, human; details: FIG. 6(A)
Protocol: Intracellular H2O2 production in live cells was measured using Total ROS/superoxide detection kit (Enzo life science), following the manufacturer's instructions. The assay uses specific H2O2/RNS probes that upon reaction with H2O2 and RNS species were oxidized rapidly to highly fluorescent compounds. Fluorescence intensity is proportional to the total H2O2/RNS levels within the sample. […] The day before the analysis, cells were seeded in 96-well black/clear bottom plates at a density of 2×10^4 in culture media according to cell suppliers instructions, supplemented with FBS (10% v/v), 10 units of penicillin/mi and […] of streptomycin. Cells were kept at 37° C. in a humid atmosphere of 95% air: 5% CO2 overnight. On the day of the analysis, cells media was replaced by 100 μL of phenol free-media supplemented as above, without any treatment, with S-methyl 4-(dimethylamino)-4-methylpent-2-ynethioate for 6 hours, vehicle HEPES for 6 hours, or with NAC for 20 min. […] Several wells were left without cells for the background fluorescence control measurements. Plates were read using fluorescence microplate reader (ex=560 nm, Em=600). Data were expressed as the change in arbitrary fluorescence units produced from equal amounts of cells and normalized to total protein input.

HL-60 (leukemia) = test: Alamar blue growth inhibition, cell line HL60; type: cell-based; details: Homo sapiens
Protocol: (§2) Cells were seeded into 96-well cell culture plates at concentrations required to ensure approximately 80% confluence in control (untreated cells) at the end of experiment (0.5×10^4-5×10^4 cell/well). The sensitivity towards S-methyl 4-(dimethylamino)-4-methylpent-2-ynethioate was determined using different concentrations of the drug (from 0.01 to 100 μM). After 48 hours, the growth-inhibitory effect of the drug was analyzed using Alamar blue, according to manufactures instructions. The Alamar Blue assay was used based on earlier observations: similar results were found with Alamar blue, tetrazolium reduction (XTT assay). To ensure good data quality and to minimize impact of pipetting errors, each particular drug concentration was assessed based on mean fluorescence intensity from 8 separate wells. The drug response was quantified by the half maximal inhibitory concentration (IC50) for each particular cell line, and determined by non-linear regression analysis of log-dose/response curves. Cut-off value for resistance to S-methyl 4-(dimethylamino)-4-methylpent-2-ynethioate was determined statistically (>2 S.D. above the IC50 geometric mean). The in-vitro threshold value for hypersensitivity to the drug has been defined as <IC50 geometric mean.
(§3) In addition, other compounds according to the invention were tested by following the above mentioned material and method on the cell line DU145 (prostatic cancer line) and the cell line HL60 (leukemia) mentioned in Table 2.

[4] = tested on: cancer cell lines which overproduce H2O2; test: Viability assay (resazurin, XTT or MTT) on various cancer cell lines; type: cell-based, human; details: FIG. 1
Protocol: A panel of 52 human tumor cells representing 10 tissue types has been selected to cover a broad set of different oncogenes and according to their response to different standard chemotherapeutics. […]
as §2, with “The Alamar Blue assay was used based on earlier observations: similar results were found with Alamar blue, tetrazolium reduction (XTT assay).” left out, “The in-vitro threshold value for hypersensitivity to the drug has been defined as <IC50 geometric mean.” left out

normal cells = test: Selectivity control on normal cells; type: cell-based, human; details: same method as cancer cells
Protocol: as §2, with “mean. […]” for “mean.”

resistant cells (MSC) [5] = test: HNE-adducts ELISA, resistant cells; type: cell-based, human; details: 5 or 10 μmol·L^−1 during 24 hours, FIG. 10
Protocol: (§4) The formation of HNE-adducts and MDA-adducts was quantified with the Oxiselect HNE Adduct Elisa kit (Cell Biolabs, San Diego, Calif.) and the OxiSelect MDA Adduct ELISA Kit (Cell Biolabs), respectively. Briefly, after a treatment with S-methyl 4-(dimethylamino)-4-methylpent-2-ynethioate during 24 hours, cells were lysed by sonication in reducing SDS Sample Buffer. Homogenates were diluted to 10 μg protein/mL and adsorbed in 96-well protein binding plates by incubation at 37° C. for at least 2 hours. Wells were washed twice with PBS and incubated for an additional 2 hours at room temperature on an orbital shaker. Following three washes in PBS, 100 μL of anti-HNE antibody or anti-MDA antibody were added to the wells and incubated for 1 hour at room temperature. Subsequently, goat anti-rabbit secondary antibody-HRP conjugate (diluted 1/1000 with the assay diluent) was added and incubation continued for 1 hour. Wells were washed five times in PBS and HRP-substrate was added. Reaction was stopped with an acidic solution, and absorbance read on a microplate reader at 450 nm. The level of HNE-adducts and of MDA-adducts was determined by comparison with a standard curve prepared from HNE-BSA and MDA-BSA standards supplied by the manufacturer. […]

[6] = tested on: DU145 (prostatic cancer line); test: Alamar blue growth inhibition, cell line DU145; type: cell-based; details: Homo sapiens, DU-145
Protocol: as §2, §3

[7] = tested on: sensitive cells (HL-60, NT2/D1); test: HNE-adducts ELISA, sensitive cells; type: cell-based, human; details: 5 or 10 μmol·L^−1 during 24 hours, FIG. 10
Protocol: as §4

Colo357 cells [8] = test: Viability of Colo357 cells treated with BCNU; type: cell-based; details: Colo357 cells treated with 100 μM carmustine (BCNU); FIG. 8(B)
resistant cells (MSC) [9] = test: MDA-adducts ELISA, resistant cells; type: cell-based, human; details: 5 or 10 μmol·L^−1 during 24 hours, FIG. 10
Protocol: as §4

[10] = tested on: HPF (Human Pulmonary fibroblasts); test: Alamar blue growth inhibition, normal human primary cells; type: cell-based; details: Pulmonary fibroblast, 48 hours
Protocol: as §2
(§5) In addition, to control the selectivity of the S-methyl 4-(dimethylamino)-4-methylpent-2-ynethioate toward cancer cells, the compound according to the invention was also tested on normal cells by using the same method as the one described above.

[11] = tested on: BEAS-2B (Human bronchial epithelial cells); test: as above; type: cell-based; details: 48 hours
Protocol: as §2, §5

[12] = tested on: huvec (Human umbilical vein endothelial cells); test: as above; type: cell-based; details: 48 hours
Protocol: as §2, §5

[13] = tested on: NHEM (Normal Human epidermal melanocytes); test: as above; type: cell-based; details: Melanocyte, 48 hours
Protocol: as §2, §5

[14] = tested on: hMCSs-BM (Human mesenchymal stem cells from bone marrow); test: as above; type: cell-based; details: 48 hours
Protocol: as §2, §5

HL-60 cells [15] = test: Viability of HL-60 cells with NAC or GSH-MEE (induction of resistance); type: cell-based
Protocol: To revert S-methyl 4-(dimethylamino)-4-methylpent-2-ynethioate-induced cell death, drug sensitive cells HL-60 were exposed to S-methyl 4-(dimethylamino)-4-methylpent-2-ynethioate (10 μM) in the presence of the reduced glutathione analog Glutathione Monoethyl Ester (GSH-MEE) at concentrations 10 mM or S-methyl 4-(dimethylamino)-4-methylpent ynethioate in combination. HL-60 were seeded, into 96-wells plate, at a concentration of 5×10^4 cells/well in 100 μL of complemented medium supplemented with Glutathione Monoethyl Ester (GSH-MEE) 10 mM. After 90 minutes incubation, cells were washed with PBS and cells were incubated using different concentrations of the drug (from 0.01 to 100 μM). After 24 h and 48 h cell viability was measure using the Rezasurin assay as described above.

[16] = tested on: sensitive cells (HL-60, NT2/D1); test: MDA-adducts ELISA, sensitive cells; type: cell-based, human; details: 5 or 10 μmol·L^−1 during 24 hours, FIG. 10
Protocol: as §4

Colo357 cells [17] = test: Measurement of GSH level (GSH-Glo); type: cell-based; details: 100 μM, FIG. 8(A)
Protocol: as §1

SMILES: CC(=O)N[C@@H](CS)C(=O)O [NAC, N-acetyl-L-cysteine]
- rate constant, scavenging of hydroxy radicals [1]: 1.36×10^10 M^−1,s^−1
- rate constant, reaction with hydrogen peroxide [2]: 0.38 M^−1, s^−1
- amount of GSH level (HL-60 cells [3]): significantly increased

SMILES: CSC(=O)C#CC(C)(C)N(C)C [S-methyl 4-(dimethylamino)-4-methylpent-2-ynethioate]
- H2O2 activity level in Relative Fluorescence Unit (RFU) (HL60 cancers cells; HL60, 5 μM for 24 hours): increased
- H2O2 activity level in Relative Fluorescence Unit (RFU) (HL60 cancers cells; HL60, treatment in addition with 2.5 mM N-acetyl-Cysteine (NAC)): no H2O2 increase
- IC50 (HL-60 (leukemia)): 7.6 µM
- efficacy in cancer cell lines (viability assay) [4]: effective
- effect on normal cells (normal cells): no effect
- HNE-adducts level (resistant cells (MSC) [5]): < 1 μg per μg of total protein
- IC50 [6]: 7.2 µM
- HNE-adducts level [7]: > 1 μg per μg of total protein
- decrease of viability (Colo357 cells [8]): 50%
- MDA-adducts level (resistant cells (MSC) [9]): < 100 ng per μg of total protein
- IC50 [10]: > 100 µM
- IC50 [11]: > 50 µM
- IC50 [12]: > 50 µM
- IC50 [13]: > 100 µM
- IC50 [14]: > 50 µM
- viability of HL-60 cells (HL-60 cells [15]; 5, 10 μmol·L-1 and 2.5 mM NAC, FIG. 6(C)): inhibition of efficacy
- cytotoxic effect on HL-60 cells (HL-60 cells [15]; after pre-treatment of 10 mM GSH-MEE, FIG. 7): no more effective
- MDA-adducts level [16]: above 100 ng per μg of total protein

SMILES: CSC(=O)C#CC(C)(C)N(C)Cc1ccccc1 [S-methyl 4-[benzyl(methyl)amino]-4-methylpent-2-ynethioate]
- IC50 (HL-60 (leukemia)): 10.4 µM
- IC50 [6]: 1.4 µM

SMILES: CSC(=O)C#CC(C)(C)N(C)c1ccccc1 [S-methyl 4-methyl-4-[methyl(phenyl)amino]pent-2-ynethioate]
- IC50 (HL-60 (leukemia)): 24.8 µM
- IC50 [6]: 12.5 µM

SMILES: O=NN(CCCl)C(=O)NCCCl [carmustine]
- decrease of the GSH level (Colo357 cells [17]): 50%

Results, then the compound that gave them:

- IC50 (HL-60 (leukemia)): 30 µM
- IC50 [6]: 9.3 µM
SMILES: CSC(=O)C#CC(C)(C)N1CCOCC1 [S-methyl 4-methyl-4-(morpholin-4-yl)pent-2-ynethioate]

- IC50 (HL-60 (leukemia)): 7.21 µM
- IC50 [6]: 22 µM
SMILES: CSC(=O)C#CC(C)(C)N1CCCCC1 [S-methyl 4-methyl-4-(piperidin-1-yl)pent-2-ynethioate]
